Assay results reported in US20160166569A1, “METHOD FOR TREATING SKIN THICKENING” (GALDERMA RESEARCH & DEVELOPMENT, priority 2013, published 2016).
Read-outs that look alike come from different tables or passages of the source.

System: UV-induced skin thickening
Settings: for other skin disorders induced by UV-irradiation (low grade of erythema or flaking, white raised area on skin, wrinkling): compared to vehicle control
Description: Albino hairless SKHI-hr mice (36/sex/group) were treated for 40 weeks with UVR and brimonidine gel or vehicle according to the design in Table 11. […] Topical treatments were performed approximately one hour before UVR on Monday, Wednesday and Friday of each week and approximately one hour after UVR Tuesday and Thursday of each week.
N/N=Total number of observations/number of mice with observation

Brc1c(NC2=NCCN2)ccc2nccnc12 [brimonidine, (5-bromo-quinoxalin-6-yl)-(4,5-dihydro-1H-imidazol-2-yl)-amine]
UV-induced skin thickness, statistical effect (0.18% (w/w) topical): did not statistically reduce
incidence of skin thickening compared to the UV control group (0.18% (w/w) topical): observably lower
UV-induced skin thickness, statistical effect compared to the UV control group (1% (w/w) topical): statistically reduced
other skin disorders induced by UV-irradiation (low grade of erythema or flaking, white raised area on skin, wrinkling) (1% (w/w) topical): reduced
UV-induced skin thickness, statistical effect compared to the UV control group (2% (w/w) topical): statistically reduced
other skin disorders induced by UV-irradiation (low grade of erythema or flaking, white raised area on skin, wrinkling) (2% (w/w) topical): reduced
skin thickening or other skin disorders (mice exposed to UV radiation, summary statement): significant reduction
UV-induced skin thickening (topical application at 0.18%, 1% and 2% (w/w), UVR 600 RBU/week): dose-dependent reduction
